Among the test systems are A549; ACHN; CAKI-1; CCRF-CEM; HCT-116; HOP-62; Hs-578T; IGROV-1; Malme-3M; NCI-H460; NCI-H522; OVCAR-5; PC-3; RPMI-8226; SK-MEL-5; SK-OV-3; SNB-19; SNB-75; SW-620; TK-10.
What all share (test): inhibition of tumour cell growth, NCI panel, 48 h

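Where inhibition never reached the appropriate level, the endpoint shown equals the highest concentration tested. Otherwise, values were interpolated linearly from a five-concentration, 48-hour dose response in 96-well plates. At the GI50, growth is halved.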 Active and inactive are the calls of the source. Cut-off read from the data, not from the text of the source: active = GI50 up to about 1.1 µM and inactive = higher.

As to `O=C1/C(=C/c2ccccc2)CN(C(=O)CCN2CCOCC2)C/C1=C\c1ccccc1`, the GI50 is 7.16 µM (inactive) in the test with A549; 3.49 µM (inactive) in the test with ACHN; 10.1 µM (inactive) with CAKI-1; 1.38 µM (inactive) in the test on CCRF-CEM; 0.778 µM (active) in the test on HCT-116; 8.45 µM (inactive) with HOP-62. Also, the GI50 was 2.6 µM (inactive) in the test with Hs-578T; 6.04 µM (inactive) in the test with IGROV-1; 2.49 µM (inactive) in the test with Malme-3M; 2.36 µM (inactive) with NCI-H460; 2.01 µM (inactive) with NCI-H522; 7.36 µM (inactive) in the test on OVCAR-5. In addition, the GI50 in the test with PC-3 is 2.75 µM (inactive); in the test with RPMI-8226, 0.519 µM (active); in the test on SK-MEL-5, 2.17 µM (inactive); in the test on SK-OV-3, 10.7 µM (inactive); with SNB-19, 5.45 µM (inactive); in the test on SNB-75 it was 7.18 µM (inactive). The GI50 is 0.459 µM (active) in the test with SW-620 and 11.9 µM (inactive) with TK-10.

As to `N=C(N)N/N=C/c1c(-c2ccc([N+](=O)[O-])cc2)nc2sccn12`, the GI50 with A549 is 1.78 µM (inactive); in the test on ACHN it was 2.64 µM (inactive); in the test with CAKI-1, 2.43 µM (inactive); with CCRF-CEM it was 0.673 µM (active); with HCT-116 it was 1.63 µM (inactive); with HOP-62, 1.67 µM (inactive). Moreover, the GI50 in the test with Hs-578T is 1.89 µM (inactive); in the test on IGROV-1, 8.63 µM (inactive); in the test on Malme-3M, 1.95 µM (inactive); with NCI-H460, 2 µM (inactive); with NCI-H522, 2 µM (inactive); with OVCAR-5, 1.7 µM (inactive). Besides, the GI50 with PC-3 was 1.59 µM (inactive); with RPMI-8226 it was 5.27 µM (inactive); in the test on SK-MEL-5 it was 3.23 µM (inactive); in the test on SK-OV-3 it was 1.64 µM (inactive); with SNB-19, 1.38 µM (inactive); in the test with SNB-75, 1.8 µM (inactive). Further, the GI50 was 0.706 µM (active) with SW-620 and 1.82 µM (inactive) with TK-10.

Turning to `O=C1c2ccccc2-c2nc(-c3cccnc3)cc3c2c1nc1ccccc13`, the GI50 is > 100 µM (inactive) in the test on A549; > 100 µM (inactive) with ACHN; > 100 µM (inactive) in the test on CAKI-1; 26.5 µM (inactive) with CCRF-CEM; > 100 µM (inactive) in the test on HCT-116; > 100 µM (inactive) with HOP-62. Further, the GI50 in the test on Hs-578T is > 100 µM (inactive); in the test with IGROV-1, 25.5 µM (inactive); in the test on Malme-3M, 92.9 µM (inactive); in the test with NCI-H460, 22.8 µM (inactive); in the test with NCI-H522, > 100 µM (inactive); with OVCAR-5 it was > 100 µM (inactive). The GI50 was > 100 µM (inactive) in the test on PC-3; 45.8 µM (inactive) with RPMI-8226; > 100 µM (inactive) with SK-OV-3; > 100 µM (inactive) in the test on SNB-19; > 100 µM (inactive) with SNB-75; > 100 µM (inactive) in the test on SW-620. In addition, in the test on TK-10, the GI50 is > 100 µM (inactive).

`CCOC(=O)[C@H](C)OC(=O)[C@@](C)(NC(=O)c1ccccc1C(=O)OC)[C@@H]1NC=C(C(=O)OC)CS1`: the GI50 with A549 was > 100 µM (inactive); with ACHN, > 100 µM (inactive); with CAKI-1 it was > 100 µM (inactive); with CCRF-CEM it was 20.3 µM (inactive); in the test with HCT-116 it was > 100 µM (inactive); in the test on HOP-62 it was > 100 µM (inactive). Also, the GI50 is > 100 µM (inactive) with Hs-578T; 80 µM (inactive) in the test on IGROV-1; 97.3 µM (inactive) with Malme-3M; 80.4 µM (inactive) with NCI-H460; > 100 µM (inactive) with NCI-H522; > 100 µM (inactive) in the test with OVCAR-5. In addition, the GI50 with PC-3 is > 100 µM (inactive); in the test on RPMI-8226, 38.1 µM (inactive); with SK-MEL-5 it was 74.1 µM (inactive); in the test on SK-OV-3 it was > 100 µM (inactive); in the test with SNB-19, > 100 µM (inactive); in the test with SNB-75, 25.4 µM (inactive). The GI50 with SW-620 and in the test with TK-10 was > 100 µM (inactive) throughout.

On to `CC1OC(OCC2OC(Oc3ccc(C4CC(=O)c5c(O)cc(O)cc5O4)cc3O)C(O)C(O)C2O)C(O)C(O)C1O` (stereo unspecified), for which the GI50 in the test on A549, in the test on ACHN, with CAKI-1, in the test on CCRF-CEM, with HCT-116 and in the test on HOP-62 was > 100 µM (inactive) in each case. For the same molecule, the GI50 in the test with Hs-578T, in the test on IGROV-1, with Malme-3M, with NCI-H460, with NCI-H522 and in the test on OVCAR-5 was > 100 µM (inactive) in each case. Also, the GI50 in the test with PC-3, in the test on RPMI-8226, in the test on SK-MEL-5, in the test on SK-OV-3, in the test on SNB-19 and with SNB-75 was > 100 µM (inactive) in each case. The GI50 in the test on SW-620 and with TK-10 was > 100 µM (inactive) throughout.

Take `CN(C)c1ccc(C(=NN)c2ccc(N(C)C)cc2)cc1`: the GI50 in the test on A549 is 1.3 µM (inactive); in the test on ACHN, 8.3 µM (inactive); with CAKI-1 it was 0.276 µM (active); in the test on CCRF-CEM, 0.394 µM (active); in the test on HCT-116, 0.532 µM (active); in the test on HOP-62 it was 1.9 µM (inactive). For the same molecule, the GI50 in the test with Hs-578T is 2.33 µM (inactive); in the test with IGROV-1 it was 0.746 µM (active); in the test with Malme-3M it was 53.3 µM (inactive); in the test with NCI-H460, 0.337 µM (active); in the test on NCI-H522 it was 0.25 µM (active); in the test on OVCAR-5, 4.95 µM (inactive). The GI50 in the test with PC-3 was 0.755 µM (active); with RPMI-8226, 0.859 µM (active); in the test with SK-MEL-5 it was 0.447 µM (active); in the test on SK-OV-3, 1.84 µM (inactive); in the test with SNB-19 it was 2.2 µM (inactive); in the test with SNB-75, 0.401 µM (active). For the same molecule, the GI50 was 0.462 µM (active) with SW-620 and 0.557 µM (active) in the test with TK-10.

With `CC(C)(C)OC(=O)n1c(Cl)c(C=O)c2ccccc21`, the GI50 in the test with A549 is 92.9 µM (inactive); in the test on ACHN, 23.9 µM (inactive); in the test on CAKI-1, 17.2 µM (inactive); in the test on CCRF-CEM, 27.9 µM (inactive); with HOP-62, 20.6 µM (inactive); in the test on Hs-578T, 34.8 µM (inactive). Also, the GI50 in the test on IGROV-1 is 28.2 µM (inactive); with Malme-3M, 19.1 µM (inactive); with NCI-H460, 21.2 µM (inactive); with NCI-H522, > 100 µM (inactive); with OVCAR-5, 35.5 µM (inactive); in the test on PC-3 it was 22 µM (inactive). Moreover, the GI50 with RPMI-8226 was 10.9 µM (inactive); in the test on SK-MEL-5, 43.5 µM (inactive); in the test with SK-OV-3 it was > 100 µM (inactive); in the test on SNB-19, 86.1 µM (inactive); in the test on SNB-75 it was 68.5 µM (inactive); in the test on SW-620, 36.2 µM (inactive). For the same molecule, in the test on TK-10, the GI50 was 25.6 µM (inactive).

As to `Cc1ccc(S(=O)(=O)c2c(O)c3ccc(O)c(C)c3oc2=O)cc1`, the GI50 in the test with A549, in the test with ACHN, in the test with CAKI-1, in the test on CCRF-CEM, in the test with HCT-116 and with Hs-578T was > 100 µM (inactive) throughout. The GI50 with IGROV-1, with Malme-3M, with NCI-H460, in the test on NCI-H522, in the test on OVCAR-5 and in the test with PC-3 was > 100 µM (inactive) in each case. The GI50 in the test on RPMI-8226, in the test on SK-MEL-5, in the test on SK-OV-3, with SNB-19, in the test with SNB-75 and in the test with SW-620 was > 100 µM (inactive) each time. The GI50 in the test on TK-10 was > 100 µM (inactive).

On to `CN1CCN(c2ccc3[nH]c(-c4ccc5[nH]c(-c6ccc(N(C)CCCl)cc6)nc5c4)nc3c2)CC1`, for which the GI50 in the test with A549 was 0.286 µM (active); in the test on ACHN it was 0.942 µM (active); in the test with CAKI-1 it was 4.41 µM (inactive); in the test with CCRF-CEM, < 0.01 µM (active); in the test on HCT-116, 0.239 µM (active); in the test with HOP-62, 0.156 µM (active). For the same molecule, the GI50 in the test with Hs-578T was 0.206 µM (active); in the test with IGROV-1 it was 0.0382 µM (active); in the test with Malme-3M, 0.208 µM (active); in the test on NCI-H460 it was 0.222 µM (active); in the test on NCI-H522, 0.0163 µM (active); in the test with OVCAR-5, 2.45 µM (inactive). The GI50 is 0.136 µM (active) in the test with PC-3; 1.62 µM (inactive) in the test on RPMI-8226; 0.18 µM (active) in the test with SK-MEL-5; 0.196 µM (active) in the test on SK-OV-3; 0.0538 µM (active) in the test on SNB-19; 0.152 µM (active) in the test with SNB-75. The GI50 was 0.14 µM (active) with SW-620 and 2.87 µM (inactive) in the test on TK-10.

Take `Clc1ccc(COC(Cn2ccnc2)c2ccc(Cl)cc2Cl)cc1` (stereo unspecified) [ECONAZOLE]: the GI50 in the test with A549 was 11.2 µM (inactive); in the test with ACHN it was 15.5 µM (inactive); in the test with CAKI-1, 11.6 µM (inactive); in the test on CCRF-CEM, 8.49 µM (inactive); with HCT-116, 8.71 µM (inactive); in the test with HOP-62 it was 12.9 µM (inactive). Also, the GI50 in the test with Hs-578T is 17 µM (inactive); with IGROV-1, 11.9 µM (inactive); with Malme-3M, 12.3 µM (inactive); in the test on NCI-H460, 11.9 µM (inactive); in the test with NCI-H522 it was 4.57 µM (inactive); in the test with OVCAR-5, 11.5 µM (inactive). Also, the GI50 in the test with PC-3 is 10.8 µM (inactive); in the test with RPMI-8226, 8.26 µM (inactive); in the test on SK-OV-3, 13.8 µM (inactive); in the test with SNB-19, 14.3 µM (inactive); in the test with SNB-75, 13.7 µM (inactive); in the test with SW-620, 12.1 µM (inactive). For the same molecule, the GI50 in the test with TK-10 was 14 µM (inactive).

These data come from ChEMBL document CHEMBL1201862, “PubChem BioAssay data set” (2004).
